From the OPERA property sets (Mansouri et al. 2018)

SMILES | logP
COC(=O)Nc1nc2cc(C(=O)c3ccccc3)ccc2[nH]1 | 2.83
c1cc(CN2CCCCC2)cc(OCCCNc2nc3ccccc3s2)c1 | 5.41
COc1ccc2cc(C(C)C(=O)Oc3ccccc3)ccc2c1 (centres undefined) | 5.17
CSc1ccc(OCC(OC(=O)n2ccnc2)C(C)(C)C)cc1 (centres undefined) | 4.03
CC(C)c1ccc(N)cc1 | 2.49
CCC(C(=O)OCc1ccc(C)cc1)C(CO)Cc1cncn1C (centres undefined) | 2.46
CNC(=O)NC(=O)C(C)(C(=O)OC)C1C=CCCC1 (centres undefined) | 1.75
Clc1ccc(-c2ccc(Cl)c(Cl)c2Cl)cc1Cl | 6.79
CNC(=S)NCCCCc1nc[nH]c1C | 0.85
CCCCc1ccc(OCC(OC(=O)n2ccnc2)C(C)(C)C)cc1 (centres undefined) | 4.97
CCn1cc(C(=O)OCOC(C)=O)c(=O)c2ccc(C)nc21 | 1.21
NC1C2CCC1c1ccc(C(F)(F)F)cc1C2 (centres undefined) | 3.54
O=c1[nH]c(=O)n(-c2ccc(Cl)cc2Cl)cc1F | 1.96
COc1cc(C(N)=O)ccc1-c1nc2ccncc2[nH]1 | 1.18
O=C1CN=C(c2ccccc2)c2cc(Cl)ccc2N1CC(F)(F)F | 3.97
CC(=O)O[C@H]1C[C@H](O[C@H]2[C@@H](O)C[C@H](O[C@H]3[C@@H](O)C[C@H](OC4CC[C@@]5(C)[C@H](CC[C@@H]6[C@@H]5CC[C@]5(C)[C@@H](C7=CC(=O)OC7)CC[C@]65O)C4)O[C@@H]3C)O[C@@H]2C)O[C@H](C)[C@H]1O[C@@H]1O[C@H](CO)[C@@H](O)[C@H](O)[C@H]1O (some centres undefined) | 1.23
CCCC(CC)C(=O)O (centres undefined) | 2.23
Cc1onc(-c2c(F)cccc2Cl)c1C(=O)NC1C(=O)N2C1SC(C)(C)C2C(=O)O (centres undefined) | 2.58
CCNC(=O)NCCCn1nc(-c2ccccc2)ccc1=O | 1.68
NS(=O)(=O)c1cc2c(cc1Cl)NC(C(Cl)(Cl)Cl)NS2(=O)=O (centres undefined) | 0.82
CCc1c(C)nc2cccc(C)n2c1=O | 1.86
COc1ccc(C(=O)OCC2OC(n3cc(I)c(=O)[nH]c3=O)CC2O)cc1 (centres undefined) | 1.38
COCCn1ccc(=O)c(O)c1C | -0.41
CCOc1cccc(-c2nnc(C)n(NC)c2=O)c1 | 1.91

SMILES | logP
NS(=O)(=O)c1cc2c(cc1[N+](=O)[O-])N=CNS2(=O)=O | 0.08
COc1cc(NS(=O)(=O)c2ccc(N)cc2)ncn1 | 0.7
CN1C(=O)C(C)(C2=CCCCC2)C(=O)N=C1O (centres undefined) | 1.98
CCC(=O)OCOC(=O)c1cn(CC)c2nc(C)ccc2c1=O | 1.7
CCCC(=O)OCC1OC(n2cc(F)c(=O)[nH]c2=O)CC1OC(=O)CCC (centres undefined) | 1.9
Cc1nn(-c2ccccc2)c(Nc2ccccc2)c1[N+](=O)[O-] | 2.98
COC(=O)NC1=NCC(c2ccc(C=O)cc2)N1C (centres undefined) | 0.74
Cc1ccc2nc3c(c(=O)n2c1)CCC3 | 1.63
CCOC(=O)NC1=NCC(c2cccc(C)c2C)N1C (centres undefined) | 2.57
CC(=O)n1cc(CC(NC(=O)CC2NC(=O)C3C4CCC(CC4)N3C2=O)C(=O)NC(Cc2ccccc2)C(=O)N(C)Cc2ccccc2)c2ccccc21 (centres undefined) | 3.69
Nc1cccc(C(=O)O)c1 | 0.65
CCOC(=O)C=C1NC(=O)C(N2CCCCC2)S1 (centres undefined) | 2.34
Nc1cc(Cl)ccc1Cl | 2.75
CCCCN1Cn2c(nc3ccccc3c2=O)C1C (centres undefined) | 1.6
CCc1c(O)c(=O)ccn1CCO | -0.66
CCCCNC(=O)CCn1ccc(=O)c(O)c1C | -0.1
CCCN(C)C(=O)c1cccc(Oc2ccccc2)c1 | 3.44
Nc1ccc(Cl)cc1Cl | 2.78
CC(C)(C)C(COc1ccc(-c2ccccc2)cc1)OC(=O)n1ccnc1 (centres undefined) | 4.56
CC(C(=O)O)N(C(=O)c1ccccc1)c1ccc(F)c(Cl)c1 (centres undefined) | 2.9
COC(=O)NC1=NCC(c2cccc(F)c2)N1 (centres undefined) | 1.41
Cc1cc(OCC(=O)O)ccc1S(C)(=O)=O | 0.54
CN1C(CSCC(F)(F)F)Nc2cc(Cl)c(S(N)(=O)=O)cc2S1(=O)=O (centres undefined) | 1.9
Cc1cccn2c(=O)ccnc12 | 0.79

SMILES | logP
CCCCSC(=Nc1cccnc1)SCc1ccc(C(C)(C)C)cc1 | 7
CNC(=S)NCCCCC(NC(=O)C(CC(=O)N1CCOCC1)Cc1cccc2ccccc12)C(=O)NC(CC1CCCCC1)C(O)CC(=O)NCCN1CCOCC1 (centres undefined) | 1.68
CCN(C)C(=O)c1cccc(Oc2ccccc2)c1 | 2.98
COc1c(O)c(Cl)c(Cl)c(Cl)c1Cl | 4.59
O=C(NN1CC=CCC1)C1CC1 | 1.12
COC(=O)c1ccccc1O | 2.55
O=C(O)C=Cc1ccc(O)cc1 | 1.46
Cc1nc2ccccn2c(=O)c1C | 1
NC(=O)c1cnc2n(c1=O)CCCC2 | -0.38
CC1OC(=O)C(C)C(O)C1C (centres undefined) | 0.36
CC1NC(=O)NC1=O (centres undefined) | -0.91
CCCNC(=O)c1ccco1 | 1.1
OCCN(CCO)Cc1cccc(COc2ccccc2)c1 | 2.33
C=CCC(CC=C)(C(=O)NC(N)=O)C(=O)OC | 1.37
COc1ccccc1/C=C/C(=O)O | 2.54
CN1CCN(Cc2ncc([N+](=O)[O-])n2C)CC1 | -0.32
CC(=O)Nc1cc(C(C)(C)C)c(O)cc1C | 2.18
N#Cc1cccnc1 | 0.36
O=C(Cc1nc(I)c([N+](=O)[O-])[nH]1)NCc1cccnc1 | 0.88
CCOP(=O)(O)Cc1ccc(F)cc1 | 1.25
COC(=O)NC1=NCC(c2ccc(C(C)C)cc2)N1 (centres undefined) | 2.6
OC(CN1C2CCCCCC21)Cn1ccnc1 (centres undefined) | 1.44
CC1CCCC2C1N2CC(O)Cn1ccnc1 (centres undefined) | 1.55
CC1CCC2C(C)C(O)OC3OC4(C)CCC1C32OO4 (centres undefined) | 2.19

SMILES | logP
CCOC(=O)CCCO | 0.43
O=C(Nc1ncnc2c1ncn2[C@@H]1O[C@H](CO)C[C@@H]1F)c1ccccc1 | 0.73
CCC(C(=O)OC(C)c1ccccc1)C(CO)Cc1cncn1C (centres undefined) | 2.23
CCC(C(=O)OCc1ccc(Cl)cc1)C(CO)Cc1cncn1C (centres undefined) | 2.69
CC(=O)c1ccc2c(c1)N(CCCN1CCN(CCO)CC1)c1ccccc1S2 | 2.62
O=C(O)CCCCOc1cccc2ccccc12 | 4
CS(=O)(=O)OCCC[Se]CCCOS(C)(=O)=O | 0.38
Nc1ccn(C2OC(CO)CC2F)c(=O)n1 (centres undefined) | -1.18
C=C1C(=O)OC2C1CCC(C)C1(O)CCC(=O)C21C (centres undefined) | 0.83
COC(=O)c1cc(=O)[nH]c(=O)[nH]1 | 0.63
Cc1cc(O)c(N(C)C)nn1 | 0.24
CCNc1nc(C)c(C(=O)CCN(CC)CC)s1 | 2.72
CC1(C)S[C@@H]2[C@H](NC(=O)C3(N)CCCCC3)C(=O)N2[C@H]1C(=O)O | 1.31
CCCN(C)CC(F)(F)F | 2.18
CC(C)(C)C(COc1ccc(I)cc1)OC(=O)n1ccnc1 (centres undefined) | 4.3
CC1c2nc3ccccc3c(=O)n2CN1c1ccccc1 (centres undefined) | 1.79
Cc1cc(C(=O)O)ccc1N | 1.37
COc1cc(N)ccc1C(=O)O | 0.45
CCC(=O)n1c(=O)[nH]cc(F)c1=O | 0.19
Clc1ccc(-c2ccc(Cl)cc2)cc1 | 5.23
CCOC(=O)C1(c2ccccc2)CCN(CCC(O)c2ccccc2)CC1 (centres undefined) | 4.04
CC(Cl)CCl (centres undefined) | 1.98
CCCCN(C)C(=O)c1cccc(Oc2ccccc2)c1 | 3.89
CCOP(=S)(OCC)Oc1nc(Cl)c(Cl)cc1Cl | 4.96

SMILES | logP
NC(=O)NCCCCCCn1nc(-c2ccccc2)ccc1=O | 1.82
CC(C)CC1NC(=O)NC1=O (centres undefined) | 0.35
Cc1c(O)c(=O)ccn1CCC(=O)N(C)C | -1.16
Cc1ccc(Cc2cnc(NCCCCc3ncc(Br)cc3C)[nH]c2=O)cn1 | 3.57
Nc1ccc(Cl)c(Cl)c1Cl | 3.33
CCN1CCc2nc(N)oc2CC1 | 0.05
COc1cccc(C2(O)CCCCC2CN(C)C)c1 (centres undefined) | 2.51
Cn1c([N+](=O)[O-])cnc1C1CC1 | 1
CC(C)c1ncc([N+](=O)[O-])[nH]1 | 0.9
O=C(O)c1cc([N+](=O)[O-])cc([N+](=O)[O-])c1O | 1.71
Cc1c(O)ccc(O)c1C | 1.36
NC(=O)Nc1ccc(C(=O)O)cc1 | 0.73
CCCc1ccc(OCC(OC(=S)n2ccnc2)C(C)(C)C)cc1 (centres undefined) | 5.77
O=C1CC2(CCCC2)C(=O)N1OCc1ccccc1 | 2.3
CC(CCC(=O)NCc1ccccc1)C1CCC2C3C(O)CC4CC(O)CCC4(C)C3CC(O)C12C (centres undefined) | 3.54
CCOC(=O)c1cnc2n(c1=O)C(C)CCC2 (centres undefined) | 0.62
CNC12CCCCC1CCc1ccc(OC)cc12 (centres undefined) | 3.75
CCCC1=Nc2cc(Cl)c(S(N)(=O)=O)cc2S(=O)(=O)N1 | 1.21
NNC(=O)c1ccc2c(c1)OCO2 | 1.16
Nc1ccc(C(=O)O)cc1F | 1.41
CCc1c(O)c(=O)ccn1CCOC | 0.04
CC(C)(C)C(COc1ccc(Cl)cc1)OC(=S)n1ccnc1 (centres undefined) | 4.96
CC(C)(C)C(COc1ccc(Cl)cc1)OC(=O)n1ccnc1 (centres undefined) | 4.19
Cc1nnc(C(C)(C)C)c(=O)n1N | 1.03

SMILES | logP
Cc1ccc(C)c(Oc2cccc(C(=O)NC(C)C)c2)c1 | 4.35
CC(C)(C)C(COc1ccccc1)OC(=O)n1ccnc1 (centres undefined) | 3.58
CCc1ccc(OCC(OC(=O)n2ccnc2)C(C)(C)C)cc1 (centres undefined) | 4.1
NS(=O)(=O)c1ccc(Cl)c([N+](=O)[O-])c1 | 0.66
CON1C(=O)CC2(CCCC2)C1=O | 1.15
CSc1ccc(OCc2ncc([N+](=O)[O-])n2C)cc1 | 2.5
CC(CF)NCC(O)COc1cccc2[nH]c3ccccc3c12 (centres undefined) | 2.81
CCCc1c(C)nc2ccccn2c1=O | 1.75
CC12CCC(OS(=O)(=O)O)CC1CCC1C2CCC2(C)C(C3=CC(=O)OC3)CCC12O (centres undefined) | -0.14
CC(C)(C)C(COc1ccc(F)cc1)OC(=O)n1ccnc1 (centres undefined) | 3.68
NCCc1cn2ccccc2n1 | 0.59
Cc1ccc(OCC(OC(=S)n2ccnc2)C(C)(C)C)cc1 (centres undefined) | 4.66
O=c1[nH]c2cc(Cl)ccc2n1C1CCN(CCCC(c2ccc(F)cc2)c2ccc(F)cc2)CC1 | 7.1
CC(=O)Nc1nc(NC(O)CC(O)CO)c(Cl)nc1[N+](=O)[O-] (centres undefined) | -0.66
NC(=S)NNC(=O)c1ccc2c(c1)OCO2 | 0.21
CCCCn1ccc(=O)c(O)c1CC | 1.22
Cc1ccn2c(=O)ccnc2c1 | 0.56
NC(=O)c1csc([C@@H]2O[C@H](CO)[C@@H](O)[C@H]2O)n1 | -1.73
Cc1nc(N)sc1C(=O)CCN1CCCCC1 | 2.13
